In patent US9232796B2, “Herbicidal compositions comprising 4-amino-3-chloro-5-fluoro-6-(4-chloro-2-fluoro-3-methoxyphenyl) pyridine-2-carboxylic acid or a derivative thereof and acetyl-CoA carboxylase (ACCase) inhibitors” (DOW AGROSCIENCES LLC, priority 2012, dated 2016):
Several values for one entry are separate records, joined by “and”; a condition that tells them apart may be missing. Equal values may be shown once.

Experiments:
[1] = tested on: LEFCH; assay: Example I postemergence foliar-applied, greenhouse, direct seeded rice weeds; type: in vivo, Leptochloa chinensis (L.) Nees
Text: Seeds or nutlets of the desired test plant species were planted in a soil matrix prepared by mixing a loam or sandy loam soil (e.g., 28.6 percent silt, 18.8 percent clay, and 52.6 percent sand, with a pH of about 5.8 and an organic matter content of about 1.8 percent) and calcareous grit in an 80 to 20 ratio. The soil matrix was contained in plastic pots with a volume of 1 quart and a surface area of 83.6 square centimeters (cm^2). When required to ensure good germination and healthy plants, a fungicide treatment and/or other chemical or physical treatment was applied. The plants were grown for 8-22 days in a greenhouse with an approximate 14 hr. photoperiod which was maintained at about 29° C. during the day and 26° C. during the night. Nutrients (Peters Excel® 15-5-15 5-Ca 2-Mg and iron chelate) were applied in the irrigation solution as needed and water was added on a regular basis. Supplemental lighting was provided with overhead metal halide 1000-Watt lamps as necessary. The plants were employed for testing when they reached the first through fourth true leaf stage.
Treatments consisted of the acid or esters of 4-amino-3-chloro-5-fluoro-6-(4-chloro-2-fluoro-3-methoxy-phenyl)pyridine-2-carboxylic acid (Compound A), each formulated as an SC (suspension concentrate), and various herbicidal components alone and in combination.
Other herbicidal components were applied on an acid equivalent (ae) or active ingredient (ai) basis and included acetyl coA carboxylase (ACCase)-inhibiting herbicides (cyclohexanedione and aryloxyphenoxypropionate chemical classes) cyhalofop-butyl formulated as Clincher® SF (285 gr ai/L EC), diclofop-methyl formulated as Hoelon® 3EC, fenoxaprop-p-ethyl+isoxadifen-ethyl formulated as RiceStar® HT (0.58 lb./gal EC), fenoxaprop-p-ethyl+mefenpyr diethyl formulated as Puma® IEC, metamifop formulated as Metamifop EC, haloxyfop-methyl formulated as Gallant Super®, fluazifop-p-butyl formulated as Fusilade® DX, quizalofop-p-ethyl formulated as Assure® II, profoxydim formulated as Aura® 20EC, clethodim applied as Intensity®, sethoxydim formulated as Poast®, and tralkoxydim formulated as Achieve®.
Treatment requirements were calculated based upon the rates being tested, the concentration of active ingredient or acid equivalent in the formulation, and a 12 mL application volume at a rate of 187 L/ha.
For treatments comprised of formulated compounds, measured amounts of compounds were placed individually in 25 mL glass vials and diluted in a volume of 1.25% (v/v) Agri-Dex® crop oil concentrated to obtain 12× stock solutions. […] Application solutions were prepared by adding an appropriate amount of each stock solution (e.g., 1 mL) and diluted to the appropriate final concentrations with the addition of 10 mL of an aqueous mixture of 1.25% (v/v) crop oil concentrate so that the final spray solutions contained 1.25+/−0.05% (v/v) crop oil concentrate.
All stock solutions and applications solutions were visually inspected for compound compatibility prior to application. Spray solutions were applied to the plant material with an overhead Mandel track sprayer equipped with a 8002E nozzles calibrated to deliver 187 L/ha over an application area of 0.503 m^2 at a spray height of 18 to 20 inches (46 to 50 cm) above average plant canopy height. Control plants were sprayed in the same manner with the solvent blank.
The treated plants and control plants were placed in a greenhouse as described above and watered by sub-irrigation to prevent wash-off of the test compounds. After approximately 3 weeks, the condition of the test plants as compared with that of the untreated plants was determined visually and scored on a scale of 0 to 100 percent where 0 corresponds to no injury or growth inhibition and 100 corresponds to complete kill. […]

[2] = tested on: ECHCG; assay: Example V (second) postemergence foliar-applied ternary mixtures, greenhouse, direct seeded rice weeds; type: in vivo, Echinochloa crus-galli (L.) Beauv.
Summary of the method: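 Compound A (SC, acid equivalent), an ACCase inhibitor and a third herbicide were sprayed alone and as ternary mixtures postemergence at 187 L/ha with 1.25% v/v crop oil concentrate on greenhouse plants at the 1st–4th true leaf stage (29/26 °C day/night, ~14 h photoperiod). Injury was scored visually at ~3 weeks (0–100%) against untreated plants, and Colby's equation gave the expected mixture effects.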

With `COc1c(Cl)ccc(-c2nc(C(=O)OCc3ccccc3)c(Cl)c(N)c2F)c1F` [Compound A Benzyl Ester, benzyl ester of 4-amino-3-chloro-5-fluoro-6-(4-chloro-2-fluoro-3-methoxy-phenyl)pyridine-2-carboxylic acid] the “Visual Weed Control (%) - 20 DAA LEFCH Obs” value ([1]; 4.38 gae/ha) was 0%, the “Visual Weed Control (%) - 22 DAA LEFCH Obs” value ([1]; 8 gae/ha) was 15% and the “Visual Weed Control (%) - 20 DAA LEFCH Obs” value ([1]; 8.75 gae/ha) was 10%. For the same molecule, the “Visual Weed Control (%) - 22 DAA LEFCH Obs” value ([1]; 16 gae/ha) was 50%, the “Visual Weed Control (%) - 20 DAA LEFCH Obs” value ([1]; 17.5 gae/ha) was 25% and the “Visual Weed Control (%) - 21 DAA ECHCG Obs” value ([2]; 2.19 gae/ha) was 5%. For the same molecule, the “Visual Weed Control (%) - 21 DAA ECHCG Obs” value ([2]; 4.38 gae/ha) was 27%, the “Visual Weed Control (%) - 21 DAA ECHCG Obs” value ([2]; 8 gae/ha) was 38% and 45% and the “Visual Weed Control (%) - 22 DAA ECHCG Obs” value ([2]; 8 gae/ha) was 40%. The “Visual Weed Control (%) - 22 DAA ECHCG Obs” value ([2]; 16 gae/ha) was 58%.

For `CCCCOC(=O)[C@@H](C)Oc1ccc(Oc2ccc(C#N)cc2F)cc1` [Cyhalofop-butyl, butyl(2R)-2-[4-(4-cyano-2-fluorophenoxy)phenoxy]propanoate, reference compound], the “Visual Weed Control (%) - 21 DAA ECHCG Obs” value ([2]; 17.5 gai/ha) was 33%, the “Visual Weed Control (%) - 22 DAA ECHCG Obs” value ([2]; 17.5 gai/ha) was 0% and the “Visual Weed Control (%) - 21 DAA ECHCG Obs” value ([2]; 35 gai/ha) was 20%. The “Visual Weed Control (%) - 22 DAA ECHCG Obs” value ([2]; 35 gai/ha) was 12%.

With `CCC/C(=N\OCC(C)Oc1ccc(Cl)cc1)C1=C(O)CC(C2CCCSC2)CC1=O` (stereo not shown) [Profoxydim, 2-[1-[[2-(4-chlorophenoxy)propoxy]imino]butyl]-3-hydroxy-5-(tetrahydro-2H-thiopyran-3-yl)-2-cyclohexen-1-one, reference compound] the “Visual Weed Control (%) - 20 DAA LEFCH Obs” value ([1]; 12.5 gai/ha) was 0% and the “Visual Weed Control (%) - 20 DAA LEFCH Obs” value ([1]; 25 gai/ha) was 40%.
